Results from patent US11053314B2, “Methods to eliminate cancer stem cells by targeting CD47” (The U.S.A, as represented by the Secretary, Department of …, priority 2014, dated 2021).
Entries after “also recorded” stand apart in the source; their conditions may differ.

Key:
E-cadherin = E-cadherin mRNA expression (FIG. 23); format: cell-based
Excerpt: FIG. 23 is a bar graph showing that 7N3 peptide increase mRNA expression of E-cadherin.

[1] = tested on: bCSCs derived from MDA-MB-231; test: BrdU cell proliferation assay, bCSCs from MDA-MB-231; format: cell-based, human; conditions: bCSC from MDA-MB-231
Description: To assess the effect of B6H12 on CSC proliferation, bCSC from MDA-MB-231 cells were treated with B6H12 or an isotype-matched control antibody, and proliferation was assessed by bromodeoxyuridine (BrdU) incorporation (FIG. 20A). […] We addressed this question by using a CRISPR vector (based on pX330-U6-Chimeric_BB-CBh-hSpCas9; Cong et al., Science. 339(6121):819-23, 2013, PMID: 23287718; sequence and other information available online at addgene.org/42230/) designed to specifically disrupt the CD47 gene in MDA-MB-231 cells (FIGS. 22A and 22B), using the following gRNA targeting sequence: 5′ CTACTGAAGTATACGTAAG ngg 3′ (PC200.Hcd47.g3a; SEQ ID NO: 2). PC200.Hcd47.g3a was transfected into bCSCs derived from MDA-MB-231 using a NUCLEOFECTOR™ kit (Lonza, Switzerland). CD47 negative cells were sorted using FACS analysis. CD47^neg bCSCs cells were expanded in culture and cell proliferation was measured using BrdU cell proliferation kit (EMD Millipore).
Approximately 8,000 cells were plated per well on 96-well plates and incubated overnight at 37° C. The cells were treated with B6H12 or isotype control antibody (1 μg/ml) for 24 h. BrdU was added for 4 or 24 h as indicated in the figures, and BrdU incorporation was quantified using a BrdU Cell Proliferation Kit according to the manufacturer's instructions (EMD Millipore). […]

[2] = tested on: miR let7-family from cellular RNA of MDA-MB-231; test: Real time PCR of let-7 family miRNAs (Ct values, Table 4); format: cell-based, human
Description: (FIG. 28C & FIG. 28D) The differentiated and bCSCs cells were treated with B6H12 Ab for 24 h. The total miRNA was extracted and let-7 family miRNAs were analyzed using real time PCR. Relative expression of let-7a-2miRNA in differentiated and bCSCs cells was determined using U6 as control. (FIG. 28E) EGFR mRNA expression on EVs derived from MDA-MB-231, bCSCs, T47D1 and MCF7 cells. The cells were treated with control or B6H12 antibody for 6 h using AB serum media. (FIG. 28F) Protein expression of EGFR in the presence or absence of B6H12 for 24 h using FACS sorted CD44^+/CD24-bCSCs from MDA-MB-231, T47D1 and MCF7 cell lines. FIG. 28G) Relative expression of let-7a-2miRNA from EVs. FIG. 28H) Amplification and expression of let-7a-3 miRNA from EV […].
CSC-depleted MDA-MB-231 and bCSCs were plated at 1×10^6 cells in 6-well plates and were-treated with B6H12 or Isotype control antibody (1 μg/ml) for 36 h. Total RNA was extracted using TriPure (Roche). One μg of total RNA was used for first strand cDNA synthesis using a Maxima kit (2-Step RT PCR, Thermo Scientific) according to the manufacturer's instructions. Real time PCR was performed using SYBR Green (Roche) on an MJ Research Opticon I instrument (Bio-Rad) with the amplification program as described in (Kaur et al., Matrix Biol, 37:49-59, 2014). β2-microglobulin (B2M), HPRT1 or 18S rRNA primers were used as control to normalize mRNA expression (Table 2).

EGFR = EGFR phosphorylation, IP-western blot in MDA-MB-231 cells and bCSCs; format: cell-based, human; conditions: MDA-MB-231 cells; B6H12 15 min, EGF 5 min
Description: bCSC-depleted MDA-MB-231 cells and bCSCs were plated at 1×10^6 cells in 6-well plates. The cells were serum-starved for 2 hours using serum-free RPMI medium. The cells were pre-treated with B6H12 (1 μg/ml) for 20 min. Cell lysates were made using immunoprecipitation buffer (50 mM Tris-HCl, 150 mM NaCl, and 1% Nonidet P-40) along with 1× Complete Mini-protease inhibitor mixture (Roche Applied Science). Cell lysates were centrifuged at 13,000 rpm for 15 min. A BCA assay (Thermo scientific) was used to quantify total protein. DYNABEADS® magnetic separation beads (Invitrogen) were used for Immunoprecipitation. The DYNABEADS® magnetic separation beads were washed three times with activation buffer. The cell lysates were incubated in DYNABEADS®-protein G along with anti-EGFR and CD47 antibodies (1:500) and incubated for 24 hours at 4° C. on a shaker. The beads were washed three times with lysate buffer and heated at 95° C. for 5 min. The immunoprecipitated cell lysates were loaded on 4-12% NuPAGE gels (Life Technologies), and Western blotting was performed. For immunoprecipitation, primary antibody against phospho-EGFR (1:1000) was used. Normalization of protein lysates used for Western blotting was performed by reprobing with anti-β-actin (1:3000) or tubulin or EGFR antibodies.
MDA-MB-231 cells were pretreated with B6H12 (1 μg/ml) for 15 min. […]

MDA-MB-231 and bCSCs = test: Mitochondrial energetics, extracellular flux (Seahorse Analyzer); format: cell-based, human; conditions: 1 μg/ml
Description: The control MDA-MB-231 and bCSCs were plated using XF24 well plates for 1-4 days. Mitochondrial energetics was measured using extracellular flux assay kits. FIG. 12A) B6H12 (1 μg/ml) alters mitochondrial energetics in bCSCs but not in control MDA-MB-231 cells. FIGS. 12B & 12C) Long term treatment of bCSC with B6H12 (1 μg/ml) leads to decrease in basal oxygen consumption rate (OCR) due to decreased ATP associated OCR and decreases reserve mitochondrial metabolic capacity. […] The cells were immunostained using BrdU antibody and mounted with Vectashield DAPI. The confocal images were taken using a Zeiss 710 microscope at 63×. FIGS. 12E & 12F) Control MDA-MB-231 cells and bCSCs were treated with control or B6H12 Ab at 0.1, 1, 2 and 5 […] for 72 h. The cell proliferation was measured using CellTiter 96® Aqueous Non-Radioactive Cell Proliferation Assay (MTS) according to manufacturers' instructions.
B6H12 increased the basal oxygen consumption rate (OCR) at day 1 and day 3 but this was lost at day 4, when both the basal and spare metabolic capacity were decreased. The CD47 ligand TSP1 had less effect than the CD47 antibody. B6H12 decreased asymmetric division and proliferation measured by the MTS assay (FIGS. 12D-12F).

[3] = tested on: several breast cancer cell lines; conditions: ligation of CD47; cited from earlier work

Substance: FIRVVMYEGKK [7N3]
- mRNA expression of E-cadherin (E-cadherin): increase

Substance: PC200.Hcd47.g3a: gRNA targeting sequence CTACTGAAGTATACGTAAG ngg (SEQ ID NO: 2) in CRISPR vector disrupting the CD47 gene (guide CTACTGAAGTATACGTAAGNGG)
- DNA synthesis (BrdU incorporation) [1]: diminished

Substance: epidermal growth factor [EGF]
- Ct value of miR let7-family 7a-2 [2]: 26.09 ± 0.50
- Ct value of miR let7-family 7a-3 [2]: 28.88 ± 0.71
- Ct value of miR let7-family 7f-2 [2]: 33.24 ± 0.05
- Ct value of miR let7-family 7d [2]: 27.38 ± 0.18
- Ct value 18S RNA ([2]; reference RNA): 17.65 ± 0.35
- EGFR phosphorylation at Y1068 (EGFR): significantly increased

Substance: thrombospondin-1 [TSP1]
- mitochondrial energetics (MDA-MB-231 and bCSCs): modestly changes; also recorded: less effect
- programmed cell death [3]: induce programmed cell death
